For the assay, the target named is T1, CSF-1R (colony-stimulating factor 1 receptor) (Homo sapiens, UniProt P07333).
T1 construct: gene CSF1R; CSF-1R kinase domain (AA 538–972), N-terminus 6HN-tagged, expressed in Sf21 cells
T1 sequence (P07333 538-972): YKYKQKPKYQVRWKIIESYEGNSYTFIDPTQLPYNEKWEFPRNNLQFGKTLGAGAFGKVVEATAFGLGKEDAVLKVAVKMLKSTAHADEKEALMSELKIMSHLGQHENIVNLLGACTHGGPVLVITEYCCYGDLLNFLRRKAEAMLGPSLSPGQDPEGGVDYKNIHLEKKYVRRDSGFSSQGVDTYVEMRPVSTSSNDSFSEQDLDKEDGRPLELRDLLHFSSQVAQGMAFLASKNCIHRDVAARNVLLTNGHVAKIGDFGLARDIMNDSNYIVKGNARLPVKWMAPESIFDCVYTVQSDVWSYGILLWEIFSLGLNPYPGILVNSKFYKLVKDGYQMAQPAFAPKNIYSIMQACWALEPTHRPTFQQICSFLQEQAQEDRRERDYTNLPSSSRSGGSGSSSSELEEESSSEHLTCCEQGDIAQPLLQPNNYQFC
Nature of the assay: HTRF KinEASE kinase assay with biotinylated poly(Glu4Tyr) peptide, […] ATP. It counts as biochemical.

The term IC50 denotes the concentration that inhibits the measured activity by half. Compound `Cc1ccc(NC(=O)c2ccc(CN3CCN(C)CC3)cc2)cc1Nc1nc(-c2cccnc2)cs1` [masitinib] registered an IC50 of 90 ± 35 nM.

Values taken from PMC4940876, “Post-paralysis tyrosine kinase inhibition with masitinib abrogates neuroinflammation and slows disease progression in inherited amyotrophic lateral sclerosis” (Journal of Neuroinflammation, 2016).
